Laboratory results reported in ChEMBL document CHEMBL3886468, “Cyclohexylamine derivatives having β2 adrenergic agonist and M3 muscarinic antagonist activities” (2016).

Molecular target: Muscarinic acetylcholine receptor M3 (Homo sapiens, UniProt P20309)
Assay: Muscarinic Receptor Binding Assay: The study of binding to human muscarinic M1, M2, M3, M4 and M5 receptors was performed using commercial membranes (Perkin Elmer) prepared from CHO-K1 cells. Radioligand binding experiments were conducted in 96 polypropylene well plates in a total volume of 200 ul. All reagents were dissolved in assay binding buffer (PBS with calcium and magnesium, SIGMA), except compounds that were dissolved in DMSO 100%. Non-specific binding (NSB) was measured in the presence of 1 uM atropine. [3H]-NMS was used as the radioligand at a concentration of 1 nM for M2, M3 and M5 and 0.3 nM for M1 and M4. [3H]-NMS and antagonists were incubated with membranes that express human muscarinic receptors M1, M2, M3, M4 and M5 at concentrations of 8.1, 10, 4.9, 4.5 and 4.9 ug/well, respectively. After an incubation period of two hours with gentle shaking, 150 ul of the reaction mix were transferred to 96 GF/C filter plates (Millipore), previously treated with wash buffer.
Type: cell-based

Sequence of Muscarinic acetylcholine receptor M3 (P20309 whole entry): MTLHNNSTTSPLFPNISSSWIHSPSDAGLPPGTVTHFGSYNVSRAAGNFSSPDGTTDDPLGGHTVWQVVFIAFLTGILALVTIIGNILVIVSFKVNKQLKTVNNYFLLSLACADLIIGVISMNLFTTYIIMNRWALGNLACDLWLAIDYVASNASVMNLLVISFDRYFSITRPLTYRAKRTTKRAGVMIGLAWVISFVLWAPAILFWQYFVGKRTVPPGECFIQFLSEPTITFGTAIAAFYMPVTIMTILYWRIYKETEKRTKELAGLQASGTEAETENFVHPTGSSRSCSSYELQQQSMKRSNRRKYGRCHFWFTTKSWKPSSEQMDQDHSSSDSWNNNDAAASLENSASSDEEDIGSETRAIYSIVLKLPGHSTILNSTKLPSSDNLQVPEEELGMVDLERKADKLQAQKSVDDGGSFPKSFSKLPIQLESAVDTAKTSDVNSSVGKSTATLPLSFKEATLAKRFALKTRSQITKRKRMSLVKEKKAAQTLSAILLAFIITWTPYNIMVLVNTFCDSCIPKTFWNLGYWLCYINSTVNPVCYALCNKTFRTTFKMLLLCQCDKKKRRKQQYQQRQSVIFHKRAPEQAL

CN(CCCn1nnc2cc(CNC[C@H](O)c3ccc(O)c4c3OCC(=O)N4)ccc21)[C@H]1CC[C@H](OC(=O)[C@](O)(c2cccs2)C2CCCC2)CC1
IC50: 400 pM
